# Experimental data reported in patent US20240132449A1, “HETEROCYCLIC COMPOUNDS AND METHODS OF USE THEREOF” (1cBio, Inc., priority 2022, published 2024).
# pIC50: −log10 of the molar value. Where a name gives a salt, the structure may show the parent alone.
# Experiments:
# PARP1 = PARP1 (Homo sapiens, UniProt P09874); assay: PARP1 fluorescence polarization binding assay; details: binding IC50, GST-tagged PARP1 20 nM, PARPi-FL 3 nM
# Protocol: Compounds of the present disclosure were tested in a PARP1 fluorescence polarization binding assay at Pharmaron (Beijing, P.R.China). In this biochemical assay, binding of test compound to recombinant human PARP1 reduces the amount of binding of a fluorescent probe, and consequently reduces the detected level of fluorescence polarization. Test compound stock solutions were prepared in DMSO and then serially diluted into 10 concentrations by 3-fold dilution in a 384-well plate using a TECAN EVO200. 60 nL of each dilution was transferred to the plate using an Echo550 (Labcyte), and then 10 μL 40 nM GST-tagged PARP1 (BPS Bioscience, Cat #80501), diluted in assay buffer (50 mM Tris pH 8.0, 0.001% Triton X-100, 10 mM MgCl2, 150 mM NaCl), was added to the plate. After a centrifugation at 1000 rpm for 1 min, the assay plate was incubated for 30 min at RT. 10 μL 6 nM PARPi-FL (TOCRIS, Cat #6461), diluted using assay buffer, was then added to the plate. The final concentrations of PARP1 and PARPi-FL were 20 nM and 3 nM, respectively, in a total volume of 20 μL. After a centrifugation at 1000 rpm for 1 min, the assay plate was incubated for 4 h at RT. Samples in each well were read using an Envision instrument (Perkin-Elmer; Ex=480 nm Em=FITC FP-P pol 535 nm & FITC FP-S pol 535 nm). Percent inhibition was calculated from mP values using Inhibition (%)=[1−(mPc−mPL)/(mPH−mPL)]×100%, where mPc, mPL, and mPH are the mP values of test compound, Low controls, and High controls, respectively. Binding IC50 values were calculated using XLFit (equation 201: y=A+((B−A)/(1+((x/C)^D))), where A=bottom, B=top, C=IC50, and D=slope) with a floating top and bottom for curves. Binding IC50 values are shown in Table A and are presented in ranges, in which “+++”<100 nM, 100 nM≤“++”<3000 nM, and “+”≥3000 nM.
# recombinant human PARP2 = recombinant human PARP2 (Homo sapiens, UniProt Q9UGN5); assay: PARP2 fluorescence polarization binding assay; details: for pIC50: binding IC50, GST-tagged PARP2 20 nM, PARPi-FL 3 nM; for inhibition at 10 µM: read-out: PARP2 % inh at 10 μM
# Sequence of recombinant human PARP2 (Q9UGN5 whole entry): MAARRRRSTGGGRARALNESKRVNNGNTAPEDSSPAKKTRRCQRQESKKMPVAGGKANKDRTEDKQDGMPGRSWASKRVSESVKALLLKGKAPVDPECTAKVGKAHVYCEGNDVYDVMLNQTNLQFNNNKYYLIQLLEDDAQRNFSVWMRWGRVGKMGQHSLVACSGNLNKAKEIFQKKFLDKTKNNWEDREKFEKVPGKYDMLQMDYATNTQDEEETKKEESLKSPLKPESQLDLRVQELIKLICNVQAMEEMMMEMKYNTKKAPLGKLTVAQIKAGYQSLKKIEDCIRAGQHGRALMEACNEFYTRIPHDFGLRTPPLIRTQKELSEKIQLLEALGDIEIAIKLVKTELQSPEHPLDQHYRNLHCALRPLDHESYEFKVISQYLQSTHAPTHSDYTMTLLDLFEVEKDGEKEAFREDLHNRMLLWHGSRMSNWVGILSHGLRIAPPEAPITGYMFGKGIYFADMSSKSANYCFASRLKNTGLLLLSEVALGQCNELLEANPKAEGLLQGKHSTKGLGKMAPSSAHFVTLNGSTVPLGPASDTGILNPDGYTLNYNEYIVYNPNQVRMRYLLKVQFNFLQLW
# Protocol: Compounds of the present disclosure were tested in a PARP2 fluorescence polarization binding assay at Pharmaron (Beijing, P.R. China). In this biochemical assay, binding of test compound to recombinant human PARP2 reduces the amount of binding of a fluorescent probe, and consequently reduces the detected level of fluorescence polarization. Test compound stock solutions were prepared in DMSO and then serially diluted into 10 concentrations by 3-fold dilution in a 384-well plate using a TECAN EVO200. Alternatively, a single concentration was prepared. 60 nL of each dilution was transferred to the plate using an Echo550 (Labcyte), and then 10 μL 40 nM GST-tagged PARP2 (BPS Bioscience, Cat #80502), diluted in assay buffer (50 mM Tris pH 8.0, 0.001% Triton X-100, 10 mM MgCl2, 150 mM NaCl), was added to the plate. After a centrifugation at 1000 rpm for 1 min, the assay plate was incubated for 30 min at RT. 10 μL 6 nM PARPi-FL (TOCRIS, Cat #6461), diluted using assay buffer, was then added to the plate. […] After a centrifugation at 1000 rpm for 1 min, the assay plate was incubated for 4 h at RT. Samples in each well were read using an Envision instrument (Perkin-Elmer; Ex=480 nm Em=FITC FP-P pol 535 nm & FITC FP-S pol 535 nm). […] Binding IC50 values were calculated using XLFit (equation 201: […])^D))), where A=bottom, B=top, C=IC50, and D=slope) with a floating top and bottom for curves.
# [1] = test system: DLD-1 wild-type colorectal adenocarcinoma cells; assay: Cell viability assay (Cell Titer-Glo), DLD-1 wild-type; format: cell-based; details: Homo sapiens, DLD-1, 168 h, 7 days incubation; for inhibition at 10 µM: read-out: DLD-1 wild-type % inh at 10 μM; for pIC50: 50 cells/well
# Protocol: (§1) Compounds of the present disclosure were tested for their effects on the viability of cancer cells. DLD-1 wild-type and DLD-1 BRCA2(−/−) colorectal adenocarcinoma cells, an isogenic pair of cell lines differing in the presence and absence, respectively, of both BRCA2 alleles, were used. The cells were harvested during the logarithmic growth period, counted, and seeded at 50 cells/well for DLD-1 wild-type and 200 cells/well for DLD-1 BRCA2(−/−) in a 384-well cell culture plate. After seeding, cells were incubated at 37° C., 5% CO2 overnight. Cells were treated with serially diluted test compounds at 10 concentrations (e.g., from 1.5 nM-30 μM) for generation of dose response curves, or at a single concentration. The plate was further incubated for another 7 days in a humidified incubator at 37° C. and 5% CO2. Cell viability was assessed by luminescence measurement after addition of Cell Titer-Glo reagent (Promega, Madison, Wis.) according to the manufacturer's instructions. Cell viability IC50 values were calculated using XLFit, equation 201: y=A+((B−A)/(1+((x/C)^D))), where A=bottom, B=top, C=IC50, and D=slope. IC50 values are shown in Table B and are presented in ranges, in which “+++”<300 nM, 300 nM≤“++”<3000 nM, and “+”≥3000 nM. Values for percent inhibition at 10 μM are also shown in Table B and are presented in ranges, in which “***”≥67%, 33%≤“**”<67%, and “*”<33%. Effects of the test compounds on the viability of other cell lines such as MDA-MB-436, MDA-MB-231, SUM149PT, HCC1395, and UWB1.289 are determined in an analogous method.
# [2] = test system: DLD-1 BRCA2(−/−) colorectal adenocarcinoma cells; assay: Cell viability assay (Cell Titer-Glo), DLD-1 BRCA2(−/−); format: cell-based; details: Homo sapiens, DLD-1, 168 h; 7 days incubation, 200 cells/well
# Protocol: as §1
# Sequence of PARP1 (P09874 whole entry): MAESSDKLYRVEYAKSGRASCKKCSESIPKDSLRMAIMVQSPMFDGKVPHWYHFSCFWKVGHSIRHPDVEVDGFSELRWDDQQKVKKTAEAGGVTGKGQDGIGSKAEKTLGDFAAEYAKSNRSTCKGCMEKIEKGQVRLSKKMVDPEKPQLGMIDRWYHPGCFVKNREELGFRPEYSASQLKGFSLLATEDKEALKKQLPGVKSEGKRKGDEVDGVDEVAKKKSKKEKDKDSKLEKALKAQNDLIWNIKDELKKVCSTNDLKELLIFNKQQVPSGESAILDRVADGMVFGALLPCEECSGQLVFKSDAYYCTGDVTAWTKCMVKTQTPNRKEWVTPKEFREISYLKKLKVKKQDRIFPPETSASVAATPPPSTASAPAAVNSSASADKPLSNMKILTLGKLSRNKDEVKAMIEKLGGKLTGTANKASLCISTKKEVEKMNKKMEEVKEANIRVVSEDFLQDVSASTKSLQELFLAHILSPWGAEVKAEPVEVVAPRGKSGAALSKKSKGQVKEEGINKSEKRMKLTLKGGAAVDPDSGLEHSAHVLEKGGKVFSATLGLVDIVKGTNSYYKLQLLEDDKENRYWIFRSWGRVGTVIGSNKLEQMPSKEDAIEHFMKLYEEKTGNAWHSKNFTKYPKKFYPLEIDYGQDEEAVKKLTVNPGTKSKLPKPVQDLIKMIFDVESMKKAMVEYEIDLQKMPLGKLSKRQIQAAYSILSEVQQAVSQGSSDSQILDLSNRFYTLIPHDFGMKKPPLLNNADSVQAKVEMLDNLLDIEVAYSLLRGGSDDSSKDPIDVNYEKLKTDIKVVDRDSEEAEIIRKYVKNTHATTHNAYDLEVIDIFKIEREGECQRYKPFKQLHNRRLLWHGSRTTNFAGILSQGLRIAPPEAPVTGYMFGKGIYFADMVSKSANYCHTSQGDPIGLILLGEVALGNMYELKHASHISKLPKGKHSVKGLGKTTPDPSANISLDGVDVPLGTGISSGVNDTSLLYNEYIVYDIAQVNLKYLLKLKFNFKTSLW
SMILES,pIC50 (PARP1),pIC50 (recombinant human PARP2),inhibition at 10 µM (recombinant human PARP2) [%],inhibition at 10 µM [1] [%],pIC50 [1],pIC50 [2]
"CCn1c(=O)[nH]c2cc(C(=O)N3CCN(c4ccc(C(=O)NC)nc4)CC3)ccc2c1=O [Compound 130, 5-(4-(3-ethyl-2,4-dioxo-1,2,3,4-tetrahydroquinazoline-7-carbonyl)piperazin-1-yl)-N-methylpicolinamide]",> 7.00,< 5.52,33 to 67,–,–,–
"CCn1c(=O)[nH]c2sc(CN3CCN(c4ccc(C(=O)NC)nc4F)CC3)cc2c1=O [Compound 530, 5-(4-((3-ethyl-2,4-dioxo-1,2,3,4-tetrahydrothieno[2,3-d]pyrimidin-6-yl)methyl)piperazin-1-yl)-6-fluoro-N-methylpicolinamide bis formate]",> 7.00,–,–,–,–,–
"CCn1c(=O)[nH]c2cc(CN3CCN(c4ccc(C(=O)NC)nc4)CC3)ccc2c1=S [Compound 40, 5-(4-((3-ethyl-2-oxo-4-thioxo-1,2,3,4-tetrahydroquinazolin-7-yl)methyl)piperazin-1-yl)-N-methylpicolinamide formate]",> 7.00,< 5.52,33 to 67,< 33,< 5.52,5.52 to 6.52
CCn1c(=O)[nH]c2cc(CN3CCN(c4ccc(C#N)cn4)CC3)sc2c1=O [Compound 531],> 7.00,–,–,–,–,–
CCn1c(=O)[nH]c2sc(CN3CCN(c4ccc(C(=O)NC)nc4C)CC3)cc2c1=O [Compound 186],> 7.00,–,–,–,–,–
"CCn1c(=O)[nH]c2cc(CN3CCN(c4ccc(C(=O)NC)nc4C)CC3=O)sc2c1=O [Compound 305, 5-(4-((3-ethyl-2,4-dioxo-1,2,3,4-tetrahydrothieno[3,2-d]pyrimidin-6-yl)methyl)-3-oxopiperazin-1-yl)-N,6-dimethylpicolinamide]",> 7.00,–,–,–,–,–
"CNC(=O)c1ccc(N2CCN(Cc3ccc4c(=O)n(C(C)C)c(=O)[nH]c4c3)CC2)cn1 [Compound 4, 5-(4-((3-isopropyl-2,4-dioxo-1,2,3,4-tetrahydroquinazolin-7-yl)methyl)piperazin-1-yl)-N-methylpicolinamide]",> 7.00,< 5.52,33 to 67,33 to 67,< 5.52,< 5.52
"CCn1c(=O)[nH]c2cc(CN3CCN(c4ccc(C(=O)NC)nc4C)CC3)c(Br)cc2c1=S [Compound 504, 5-(4-((6-bromo-3-ethyl-2-oxo-4-thioxo-1,2,3,4-tetrahydroquinazolin-7-yl)methyl)piperazin-1-yl)-N,6-dimethylpicolinamide]",5.52 to 7.00,< 5.52,33 to 67,< 33,< 5.52,5.52 to 6.52
"CCn1c(=O)[nH]c2cc(CN3CCN(c4ccc(F)cc4F)CC3)ccc2c1=O [Compound 226, 7-{[4-(2,4-difluorophenyl)piperazin-1-yl]methyl}-3-ethyl-1H-quinazoline-2,4-dione formate]",> 7.00,–,33 to 67,< 33,< 5.52,< 5.52
"CCn1c(=O)[nH]c2cc(CN3CCN(c4ccc(C(=O)NC)nc4C)CC3)cc(Br)c2c1=S [Compound 501, 5-(4-((5-bromo-3-ethyl-2-oxo-4-thioxo-1,2,3,4-tetrahydroquinazolin-7-yl)methyl)piperazin-1-yl)-N,6-dimethylpicolinamide formate]",> 7.00,< 5.52,33 to 67,< 33,< 5.52,5.52 to 6.52
"CCn1c(=O)[nH]c2cc(CN3CCN(c4ccc(-n5cccn5)nc4C)CC3)sc2c1=O [Compound 306, 3-ethyl-6-({4-[2-methyl-6-(pyrazol-1-yl)pyridin-3-yl]piperazin-1-yl}methyl)-1H-thieno[3,2-d]pyrimidine-2,4-dione]",> 7.00,–,–,–,–,–
"CCn1c(=O)[nH]c2cc(CN3CCN(c4ccc(NC(C)=O)nc4C)CC3)sc2c1=O [Compound 528, N-(5-(4-((3-ethyl-2,4-dioxo-1,2,3,4-tetrahydrothieno[3,2-d]pyrimidin-6-yl)methyl)piperazin-1-yl)-6-methylpyridin-2-yl)acetamide]",> 7.00,–,–,–,–,–
"CCn1c(=O)[nH]c2cc(CN3CCN(c4ccc(CNC)nc4C)CC3)sc2c1=O [Compound 529, 3-ethyl-6-((4-(2-methyl-6-((methylamino)methyl)pyridin-3-yl)piperazin-1-yl)methyl)thieno[3,2-d]pyrimidine-2,4(1H,3H)-dione]",< 5.52,–,–,–,–,–
CCn1c(=O)[nH]c2cc(CN3CC(Oc4ccc(C(=O)NC)nc4C)C3)sc2c1=O [Compound 328],5.52 to 7.00,–,–,–,–,–
"CCn1c(=O)[nH]c2cc(CN3CCN(c4ccc(C(=O)NC#N)nc4C)CC3)sc2c1=O [Compound 313, N-cyano-5-(4-((3-ethyl-2,4-dioxo-1,2,3,4-tetrahydrothieno[3,2-d]pyrimidin-6-yl)methyl)piperazin-1-yl)-6-methylpicolinamide, ammonia salt]",5.52 to 7.00,< 5.52,33 to 67,–,–,–
"CCn1c(=O)[nH]c2cc(CN3CCN(c4ccc(C(=O)N5CCCC5)nc4C)CC3)sc2c1=O [Compound 526, 3-ethyl-6-[(4-{2-methyl-6-[(pyrrolidin-1-yl)carbonyl]pyridin-3-yl}piperazin-1-yl)methyl]-1H-thieno[3,2-d]pyrimidine-2,4-dione]",< 5.52,–,–,–,–,–
"CNC(=O)c1ccc(N2CCN(Cc3ccc4c(=O)[nH]c(=O)[nH]c4c3)CC2)cn1 [Compound 1, 5-(4-((2,4-dioxo-1,2,3,4-tetrahydroquinazolin-7-yl)methyl)piperazin-1-yl)-N-methylpicolinamide formate]",5.52 to 7.00,–,33 to 67,–,–,–
"CCn1c(=O)[nH]c2cc(CN3CCN(c4ccc(-c5ncc[nH]5)nc4C)CC3)sc2c1=O [Compound 357, 64(4-(6-(1H-imidazol-2-yl)-2-methylpyridin-3-yl)piperazin-1-yl) methyl)-3-ethylthieno[3,2-d]pyrimidine-2,4(1H,3H)-dione formate]",> 7.00,–,–,–,–,–
